Several values for one entry are separate records, joined by “and”; a condition that tells them apart may be missing. Equal entries are not always repeated. Inconclusive results and toxic doses are left out. The calls were made as follows: active = survival T/C of 150% or more; inactive = T/C below 125% in these data.
System: P388 leukemia ip, CD2F1 mice, survival T/C
Assay: NCI In Vivo Anticancer Drug Screen. Data for tumor model P388 Leukemia (intraperitoneal) in CD2F1 (CDF1) mice
Settings: endpoint: median survival time, higher = longer survival
Outline: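 Mice carrying the transplanted tumor received test compound or vehicle. Survival was recorded in each group, and the value is the treated-group measurement divided by that of the vehicle-treated control group.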

[1] = dose: 50.0 mg/kg/injection, schedule: Q01DX001 (ip), vehicle: Klucel (hydroxypropylcellulose) (HPC)
[2] = dose: 100.0 mg/kg/injection, schedule: Q01DX001 (ip), vehicle: Klucel (hydroxypropylcellulose) (HPC)
[3] = dose: 200.0 mg/kg/injection, schedule: Q01DX001 (ip), vehicle: Klucel (hydroxypropylcellulose) (HPC)
[4] = dose: 400.0 mg/kg/injection, schedule: Q01DX001 (ip), vehicle: Klucel (hydroxypropylcellulose) (HPC)
[5] = dose: 50.0 mg/kg/injection, schedule: Q01DX009 (ip), vehicle: saline
[6] = dose: 100.0 mg/kg/injection, schedule: Q01DX009 (ip), vehicle: saline
[7] = dose: 200.0 mg/kg/injection, schedule: Q01DX009 (ip), vehicle: saline
[8] = dose: 30.0 mg/kg/injection, schedule: Q01DX005 (ip), vehicle: saline
[9] = dose: 60.0 mg/kg/injection, schedule: Q01DX005 (ip), vehicle: saline
[10] = dose: 60.0 mg/kg/injection, schedule: Q01DX005 (ip), vehicle: saline with Tween-80
[11] = dose: 120.0 mg/kg/injection, schedule: Q01DX005 (ip), vehicle: saline with Tween-80
[12] = dose: 120.0 mg/kg/injection, schedule: Q01DX005 (ip), vehicle: saline
[13] = dose: 50.0 mg/kg/injection, schedule: Q01DX005 (ip), vehicle: saline with Tween-80
[14] = dose: 100.0 mg/kg/injection, schedule: Q01DX005 (ip), vehicle: saline with Tween-80
[15] = dose: 50.0 mg/kg/injection, schedule: Q01DX005 (ip), vehicle: Klucel (hydroxypropylcellulose) (HPC)
[16] = dose: 100.0 mg/kg/injection, schedule: Q01DX005 (ip), vehicle: Klucel (hydroxypropylcellulose) (HPC)
[17] = dose: 200.0 mg/kg/injection, schedule: Q01DX005 (ip), vehicle: Klucel (hydroxypropylcellulose) (HPC)
[18] = dose: 25.0 mg/kg/injection, schedule: Q01DX009 (ip), vehicle: saline with Tween-80
[19] = dose: 50.0 mg/kg/injection, schedule: Q01DX009 (ip), vehicle: saline with Tween-80
[20] = dose: 100.0 mg/kg/injection, schedule: Q01DX009 (ip), vehicle: saline with Tween-80
[21] = dose: 200.0 mg/kg/injection, schedule: Q01DX009 (ip), vehicle: saline with Tween-80
[22] = dose: 25.0 mg/kg/injection, schedule: Q01DX009 (ip), vehicle: saline
[23] = dose: 12.5 mg/kg/injection, schedule: Q01DX009 (ip), vehicle: saline with Tween-80
[24] = dose: 100.0 mg/kg/injection, schedule: Q04DX003 (ip), vehicle: saline with Tween-80
[25] = dose: 200.0 mg/kg/injection, schedule: Q04DX003 (ip), vehicle: saline with Tween-80
[26] = dose: 400.0 mg/kg/injection, schedule: Q04DX003 (ip), vehicle: saline with Tween-80

Measured: T/C

CC12CSC(C)(SC1)SC2
inactive: dose: 25.0 mg/kg/injection, schedule: Q01DX001 (ip), vehicle: Klucel (hydroxypropylcellulose) (HPC) 99 % of control | [1] 99 % of control | [2] 100 % of control | [3] 100 % of control | [4] 95 % of control

Cc1cc(C)n(-c2ccncc2[N+](=O)[O-])n1
inactive: [5] 101 % of control | [6] 97 % of control | [7] 105 % of control

CN(C)c1ccc(SC(=S)NCc2ccccc2)cc1
inactive: dose: 60.0 mg/kg/injection, schedule: Q01DX005 (ip), vehicle: Klucel (hydroxypropylcellulose) (HPC) 88 % of control | dose: 120.0 mg/kg/injection, schedule: Q01DX005 (ip), vehicle: Klucel (hydroxypropylcellulose) (HPC) 88 % of control

CN(C)c1nc(=O)c2ccccc2o1
inactive: dose: 15.0 mg/kg/injection, schedule: Q01DX005 (ip), vehicle: saline 100 % of control | [8] 97 % of control | [9] 101 % of control and 95 % of control

C[Si](C)(C)CNCCNC[Si](C)(C)C
inactive: [10] 105 % of control | [11] 98 % of control

Clc1ccc(COC(Cn2ccnc2)c2ccc(Cl)cc2Cl)c(Cl)c1 (configuration not stated)
inactive: dose: 9.37 mg/kg/injection, schedule: Q01DX009 (ip), vehicle: saline with Tween-80 107 % of control | dose: 18.75 mg/kg/injection, schedule: Q01DX005 (ip), vehicle: saline with Tween-80 99 % of control | dose: 37.5 mg/kg/injection, schedule: Q01DX005 (ip), vehicle: saline with Tween-80 106 % of control | dose: 37.5 mg/kg/injection, schedule: Q01DX009 (ip), vehicle: saline with Tween-80 104 % of control | dose: 75.0 mg/kg/injection, schedule: Q01DX005 (ip), vehicle: saline with Tween-80 108 % of control | dose: 75.0 mg/kg/injection, schedule: Q01DX009 (ip), vehicle: saline with Tween-80 112 % of control | dose: 150.0 mg/kg/injection, schedule: Q01DX005 (ip), vehicle: saline with Tween-80 110 % of control | dose: 150.0 mg/kg/injection, schedule: Q01DX009 (ip), vehicle: saline with Tween-80 107 % of control

Cc1cc(C)n(C2=NCCN2)n1
inactive: [9] 99 % of control | [12] 96 % of control

COc1ccc(Cc2ccc[nH]2)cc1
inactive: dose: 100.0 mg/kg/injection, schedule: Q01DX001 (ip), vehicle: distilled water + alcohol 97 % of control | dose: 200.0 mg/kg/injection, schedule: Q01DX001 (ip), vehicle: distilled water + alcohol 97 % of control | dose: 400.0 mg/kg/injection, schedule: Q01DX001 (ip), vehicle: distilled water + alcohol 96 % of control

O=C1c2ccccc2-c2c1c1ccccc1n2S(=O)(=O)c1ccccc1
inactive: [2] 103 % of control | [3] 103 % of control | [4] 101 % of control

CNC1C(OC2C(OC3C(O)C(O)C(N=C(N)N)C(O)C3N=C(N)N)OC(C)C2(O)/C=N/NC(N)=S)OC(CO)C(O)C1O (configuration not stated)
inactive: [13] 101 % of control | [14] 100 % of control | dose: 200.0 mg/kg/injection, schedule: Q01DX005 (ip), vehicle: saline with Tween-80 103 % of control

O=C(O)C1=C(C(=O)O)CCC1
inactive: dose: 25.0 mg/kg/injection, schedule: Q01DX009 (ip), vehicle: distilled water + Tween-80 100 % of control | dose: 50.0 mg/kg/injection, schedule: Q01DX009 (ip), vehicle: distilled water + Tween-80 91 % of control | dose: 100.0 mg/kg/injection, schedule: Q01DX009 (ip), vehicle: distilled water + Tween-80 89 % of control

CC1(C)OC2(C)CCC1C1C2N1C(=O)c1ccccc1 (configuration not stated)
inactive: [15] 94 % of control | [16] 102 % of control | [17] 102 % of control

Nc1cc(Cl)nc(N)n1
inactive: [18] 96 % of control | [19] 97 % of control | [20] 101 % of control | [21] 105 % of control | dose: 400.0 mg/kg/injection, schedule: Q01DX009 (ip), vehicle: saline with Tween-80 100 % of control

O=C(O)c1ccccc1[Se](=O)(=O)O
inactive: [5] 98 % of control | [6] 100 % of control | [7] 112 % of control

CN(C)CCC(=O)/C=C\c1ccccc1
inactive: [22] 107 % of control | [5] 108 % of control

CC(=O)Oc1ccc(/C=N\N(C)C)cc1
inactive: [5] 102 % of control | [6] 95 % of control

O=S1(c2ccccc2)=NC(Nc2ccccc2)=Nc2ccccc21 (configuration not stated)
inactive: [19] 107 % of control | [20] 101 % of control | [21] 111 % of control

Nc1nnc(-c2ccccc2S)o1
inactive: [10] 103 % of control | [11] 108 % of control | dose: 240.0 mg/kg/injection, schedule: Q01DX005 (ip), vehicle: saline with Tween-80 110 % of control

c1ccc2c(c1)Nc1ccccc1O2
inactive: dose: 25.0 mg/kg/injection, schedule: Q01DX005 (ip), vehicle: Klucel (hydroxypropylcellulose) (HPC) 98 % of control | [15] 91 % of control | [16] 100 % of control | [17] 99 % of control

Cc1ccc(S)c(S)c1
inactive: [22] 100 % of control | [5] 108 % of control | [6] 100 % of control and 106 % of control and 113 % of control | [7] 101 % of control | dose: 400.0 mg/kg/injection, schedule: Q01DX009 (ip), vehicle: saline 94 % of control | dose: 600.0 mg/kg/injection, schedule: Q01DX009 (ip), vehicle: saline 91 % of control

CN(C)c1ccc(N=Cc2cc[n+](C)cc2)cc1
inactive: dose: 6.25 mg/kg/injection, schedule: Q01DX009 (ip), vehicle: saline 114 % of control | dose: 12.5 mg/kg/injection, schedule: Q01DX009 (ip), vehicle: saline 101 % of control | [22] 105 % of control | dose: 25.0 mg/kg/injection, schedule: Q04DX003 (ip), vehicle: saline 100 % of control | [5] 111 % of control | dose: 50.0 mg/kg/injection, schedule: Q04DX003 (ip), vehicle: saline 107 % of control | dose: 100.0 mg/kg/injection, schedule: Q04DX003 (ip), vehicle: saline 107 % of control

O=Cc1cc(CCl)ccc1O
inactive: dose: 12.5 mg/kg/injection, schedule: Q01DX005 (ip), vehicle: saline with Tween-80 103 % of control | dose: 25.0 mg/kg/injection, schedule: Q01DX005 (ip), vehicle: saline with Tween-80 110 % of control | [13] 113 % of control | [14] 98 % of control

COc1cc(OC)c(Br)cc1C
inactive: [23] 100 % of control | [18] 91 % of control | [19] 91 % of control | [24] 104 % of control | [25] 104 % of control | [26] 104 % of control

O=[N+]([O-])c1ccc(NS(=O)(=O)c2cccs2)c([N+](=O)[O-])c1
inactive: [23] 105 % of control | [18] 103 % of control | [19] 108 % of control

COc1ccc(C2CC(=O)CC2c2ccc(OC)cc2)cc1 (configuration not stated)
inactive: [1] 99 % of control | [2] 100 % of control | [3] 100 % of control

COc1cccc(N(CCO)C2CCCCC2)c1
inactive: [24] 100 % of control | [25] 90 % of control | [26] 88 % of control

O=C1CCC2ON=C(Br)C12 (configuration not stated)
inactive: dose: 20.0 mg/kg/injection, schedule: Q01DX005 (ip), vehicle: distilled water + Tween-80 110 % of control | dose: 40.0 mg/kg/injection, schedule: Q01DX005 (ip), vehicle: distilled water + Tween-80 112 % of control | dose: 80.0 mg/kg/injection, schedule: Q01DX005 (ip), vehicle: distilled water + Tween-80 112 % of control

NC(=O)/C(N=Nc1ccccc1I)=N\Nc1ccccc1I
inactive: [15] 97 % of control | [16] 98 % of control | [17] 97 % of control

CN(C)CCCNc1c2c(nc3ccc(Cl)cc13)CCCC2
inactive: [13] 104 % of control | [14] 106 % of control

CN1CC(O)C2=CC(=O)C(=O)C=C21 (configuration not stated)
inactive: [8] 117 % of control | [9] 120 % of control | [12] 119 % of control

Cc1nn(-c2ccccc2)c2oc3ccc(Cl)cc3c(=O)c12
inactive: [9] 96 % of control | [12] 92 % of control
